Measurements taken from patent US9586978B2, “Anti-viral compounds” (AbbVie Inc., priority 2009, dated 2017).
Read-outs that look alike come from different tables or passages of the source.

Legend:
[1] = system: HCV genotype 2b replicon; assay: HCV genotype 2b replicon assay; type: cell-based, Hepatitis C virus
Source text: (§1) [drawing 14] employs a biphenyl linker between the imidazole moieties. See WO2008021927(BMS). The EC50 values of BMS-790052 against different HCV genotypes were shown by Nettles et al., “BMS-790052 is a First-in-class Potent Hepatitis C Virus (HCV) NS5A Inhibitor for Patients with Chronic HCV Infection: Results from a Proof-of-concept Study”, 59th Annual Meeting of the American Association for the Study of Liver Diseases (Oct. 31-Nov. 1, 2008, San Francisco, Calif.; www.natap.org/2008/AASLD/AASLD_06.htm). […] See also Gao et al., NATURE 465:96-100 (2010). The compounds in Table 1 use different linkers between the imidazole moieties. Table 1 depicts the EC50 values of these compounds when tested using respective replicon assays in the presence of 5% (v/v) fetal bovine serum (FBS).

[2] = system: HCV genotype 5a replicon; assay: HCV genotype 5a replicon assay; type: cell-based, Hepatitis C virus; conditions: replicon assay in the presence of 5% (v/v) FBS
Source text: as §1

[3] = system: HCV genotype 2a replicon; assay: HCV genotype 2a replicon assay; type: cell-based, Hepatitis C virus
Source text: as §1

[4] = system: HCV genotype 1b replicon; assay: HCV genotype 1b replicon assay; type: cell-based, Hepatitis C virus
Source text: as §1
(§2) Table 2 compares compounds containing unsubstituted benzimidazole to those containing halo-substituted benzimidazole. Anti-viral activities were assessed using wild-type replicons (e.g., 1b WT or 1a WT) as well as replicons containing specific NS5A mutations (e.g., 1b L28T, 1b Y93H, 1a L31V, 1a Y93C, 1a M28V, or 1a Q30E) in the absence of FBS.
(§3) Table 3 compares compounds with different linkers between the benzimidazole moieties. Anti-viral activities were determined using 1a and 1b replicon assays. “HP” refers to human plasma. […] As compared to the phenyl linker

[5] = system: HCV genotype 4a replicon; assay: HCV genotype 4a replicon assay; type: cell-based, Hepatitis C virus
Source text: as §1

[6] = system: HCV genotype 6a replicon; assay: HCV genotype 6a replicon assay; type: cell-based, Hepatitis C virus
Source text: as §1

[7] = system: HCV genotype 3a replicon; assay: HCV genotype 3a replicon assay; type: cell-based, Hepatitis C virus
Source text: as §1

[8] = system: HCV genotype 1a replicon; assay: HCV genotype 1a replicon assay; type: cell-based, Hepatitis C virus
Source text: as §1, §2, §3

[9] = system: HCV 1b replicon containing NS5A mutation L28T; assay: HCV 1b L28T replicon assay; type: cell-based; conditions: Hepatitis C virus, read-out: EC50 (nM) 1b L28T
Experimental: as §2

[10] = system: HCV 1a replicon containing NS5A mutation Y93C; assay: HCV 1a Y93C replicon assay; type: cell-based; conditions: Hepatitis C virus, read-out: EC50 (nM) 1a Y93C
Experimental: as §2

[11] = system: HCV 1a replicon containing NS5A mutation L31V; assay: HCV 1a L31V replicon assay; type: cell-based, Hepatitis C virus; conditions: Hepatitis C virus, read-out: EC50 (nM) 1a L31V
Experimental: as §2

[12] = system: HCV 1b replicon containing NS5A mutation Y93H; assay: HCV 1b Y93H replicon assay; type: cell-based, Hepatitis C virus; conditions: for EC50: Hepatitis C virus, read-out: EC50 (nM) 1b Y93H
Experimental: as §2

[13] = system: HCV 1a replicon containing NS5A mutation M28V; assay: HCV 1a M28V replicon assay; type: cell-based; conditions: Hepatitis C virus, read-out: EC50 (nM) 1a M28V
Experimental: as §2

[14] = system: HCV 1a replicon containing NS5A mutation Q30E; assay: HCV 1a Q30E replicon assay; type: cell-based; conditions: Hepatitis C virus, read-out: EC50 (nM) 1a Q30E
Experimental: as §2

[15] = system: HCV 2a, 2b, 3a and 4a replicon; assay: HCV 2a, 2b, 3a and 4a replicon assays in the absence of human plasma; type: cell-based; conditions: 3a and 4a replicons; for EC50 values, fold less than those of Example 4.25: absence of HP, versus Example 4.25
Experimental: The inhibitory effects of the compounds of the invention on HCV replication can be determined by measuring activity of the luciferase reporter gene. For example, replicon-containing cells can be seeded into 96 well plates at a density of 5000 cells per well in 100 μl DMEM containing 5% FBS. The following day compounds can be diluted in dimethyl sulfoxide (DMSO) to generate a 200× stock in a series of eight half-log dilutions. The dilution series can then be further diluted 100-fold in the medium containing 5% FBS. Medium with the inhibitor is added to the overnight cell culture plates already containing 100 μl of DMEM with 5% FBS. In assays measuring inhibitory activity in the presence of human plasma, the medium from the overnight cell culture plates can be replaced with DMEM containing 40% human plasma and 5% FBS. The cells can be incubated for three days in the tissue culture incubators after which time 30 μl of Passive Lysis buffer (Promega) can be added to each well, and then the plates are incubated for 15 minutes with rocking to lyse the cells. Luciferin solution (100 μl, Promega) can be added to each well, and luciferase activity can be measured with a Victor II luminometer (Perkin-Elmer). The percent inhibition of HCV RNA replication can be calculated for each compound concentration and the EC50 value can be calculated using nonlinear regression curve fitting to the 4-parameter logistic equation and GraphPad Prism 4 software.

[16] = AUC value (as defined above); type: in vivo; conditions: versus Example 2.9
[17] = Hepatitis C virus, wild-type replicon, in the absence of FBS, read-out: EC50 (nM) 1b WT
[18] = Hepatitis C virus, wild-type replicon, in the absence of FBS, read-out: EC50 (nM) 1a WT
[19] = replicon assay in the presence of 5% (v/v) FBS, read-out: EC50 (nM) 2b
[20] = replicon assay in the presence of 5% (v/v) FBS, read-out: EC50 (nM) 2a
[21] = replicon assay in the presence of 5% (v/v) FBS, read-out: EC50 (nM) 1b
[22] = replicon assay in the presence of 5% (v/v) FBS, read-out: EC50 (nM) 4a
[23] = read-out: EC50 (nM) 6a, replicon assay in the presence of 5% (v/v) FBS
[24] = read-out: EC50 (nM) 3a, replicon assay in the presence of 5% (v/v) FBS
[25] = replicon assay in the presence of 5% (v/v) FBS, read-out: EC50 (nM) 1a
[26] = Hepatitis C virus, absence of human plasma, Table 5, read-out: EC50 (nM, in the absence of HP) 2b
[27] = Hepatitis C virus, absence of human plasma, Table 5, read-out: EC50 (nM, in the absence of HP) 2a
[28] = Hepatitis C virus, 40% human plasma, Table 5, read-out: EC50 (nM, in the presence of 40% HP) 1b
[29] = Hepatitis C virus, absence of human plasma, Table 5, read-out: EC50 (nM, in the absence of HP) 4a
[30] = Hepatitis C virus, read-out: EC50 (nM, in the absence of HP) 3a, absence of human plasma, Table 5
[31] = Hepatitis C virus, 40% human plasma, Table 5, read-out: EC50 (nM, in the presence of 40% HP) 1a

## COC(=O)N[C@H](C(=O)N1CCC[C@H]1c1ncc(C2=CCC(c3ccc(-c4cnc([C@@H]5CCCN5C(=O)[C@@H](NC(=O)OC)C(C)C)[nH]4)cc3)CC2)[nH]1)C(C)C (stereo partly drawn)
[1]; Hepatitis C virus, replicon assay in the presence of 5% (v/v) FBS, read-out: EC50 (nM) 2b
  EC50: 0.09 nM
[2]; Hepatitis C virus
  EC50: 0.05 nM
[3]; Hepatitis C virus, replicon assay in the presence of 5% (v/v) FBS, read-out: EC50 (nM) 2a
  EC50: 16 nM
[4]; Hepatitis C virus, replicon assay in the presence of 5% (v/v) FBS, read-out: EC50 (nM) 1b
  EC50: 0.03 nM
[5]; Hepatitis C virus, replicon assay in the presence of 5% (v/v) FBS, read-out: EC50 (nM) 4a
  EC50: 0.03 nM
[6]; Hepatitis C virus, read-out: EC50 (nM) 6a, replicon assay in the presence of 5% (v/v) FBS
  EC50: 0.5 nM
[7]; Hepatitis C virus, read-out: EC50 (nM) 3a, replicon assay in the presence of 5% (v/v) FBS
  EC50: 1.5 nM
[8]; Hepatitis C virus, replicon assay in the presence of 5% (v/v) FBS, read-out: EC50 (nM) 1a
  EC50: 0.12 nM

## COC(=O)NC(C(=O)N1CCCC1c1nc2cc(-c3ccc(-c4ccc5[nH]c([C@@H]6CCCN6C(=O)[C@@H](NC(=O)OC)C(C)C)nc5c4)cc3)ccc2[nH]1)C(C)C (stereo partly drawn)
[9]
  EC50: 2.7 nM
[10]
  EC50: 40 nM
[11]
  EC50: 36 nM
[12]
  EC50: 0.9 nM
[13]
  EC50: 1 nM
[14]
  EC50: 40 nM
[4]; [17]
  EC50: 0.01 nM
[8]; [18]
  EC50: 0.09 nM

## COC(=O)N[C@H](C(=O)N1CCC[C@H]1c1nc2cc(F)c(-c3ccc(-c4cc5[nH]c([C@@H]6CCCN6C(=O)[C@@H](NC(=O)OC)C(C)C)nc5cc4F)cc3)cc2[nH]1)C(C)C
[9]
  EC50: 1.8 nM
[10]
  EC50: 26 nM
[11]
  EC50: 109 nM
[12]
  EC50: 0.5 nM
[13]
  EC50: 2.4 nM
[14]
  EC50: 119 nM
[4]; [17]
  EC50: 0.003 nM
[8]; [18]
  EC50: 0.14 nM

## COC(=O)N[C@H](C(=O)N1CCC[C@H]1c1ncc(-c2ccc(C3CCC(c4cnc([C@@H]5CCCN5C(=O)[C@@H](NC(=O)OC)C(C)C)[nH]4)CC3)cc2)[nH]1)C(C)C (single isomer, unassigned) [drawing 17]
[1]; [19]
  EC50: 0.4 nM
[2]
  EC50: 0.08 nM
[3]; [20]
  EC50: 9 nM
[4]; [21]
  EC50: 0.06 nM
[5]; [22]
  EC50: 0.04 nM
[6]; [23]
  EC50: 0.5 nM
[7]; [24]
  EC50: 2.3 nM
[8]; [25]
  EC50: 0.71 nM

## COC(=O)N[C@H](C(=O)N1CCC[C@H]1c1ncc(-c2ccc(C3CCC(c4cnc([C@@H]5CCCN5C(=O)[C@@H](NC(=O)OC)C(C)C)[nH]4)CC3)cc2)[nH]1)C(C)C (single isomer, unassigned) [drawing 18]
[1]; [19]
  EC50: > 10 nM
[2]
  EC50: > 10 nM
[3]; [20]
  EC50: > 100 nM
[4]; [21]
  EC50: 8.5 nM
[5]; [22]
  EC50: 4 nM
[6]; [23]
  EC50: > 10 nM
[7]; [24]
  EC50: > 10 nM
[8]; [25]
  EC50: > 10 nM

## COC(=O)N[C@H](C(=O)N1CCC[C@H]1c1nc2cc([C@H]3CC[C@H](c4ccc5[nH]c([C@@H]6CCCN6C(=O)[C@@H](NC(=O)OC)C(C)C)nc5c4)N3c3ccc(N4CCC(c5ccccc5)CC4)c(F)c3)ccc2[nH]1)C(C)C [Example 3.20, methyl{(2S)-1-[(2S)-2-{5-[(2R,5R)-1-[3-fluoro-4-(4-phenylpiperidin-1-yl)phenyl]-5-{2-[(2S)-1-{(2S)-2-[(methoxycarbonyl)amino]-3-methylbutanoyl}pyrrolidin-2-yl]-1H-benzimidazol-5-yl}pyrrolidin-2-yl]-1H-benzimidazol-2-yl}pyrrolidin-1-yl]-3-methyl-1-oxobutan-2-yl}carbamate]
[15]
  EC50 values, fold less than those of Example 4.25: at least 15 fold
[1]; [26]
  EC50: ≤ 0.05 nM
[3]; [27]
  EC50: ≤ 0.05 nM
[4]; [28]
  EC50: 0.6 nM
[5]; [29]
  EC50: ≤ 0.05 nM
[7]; [30]
  EC50: ≤ 0.05 nM
[8]; [31]
  EC50: 0.5 nM

## COC(=O)N[C@H](C(=O)N1CCC[C@H]1c1nc2cc([C@H]3CC[C@H](c4ccc5[nH]c([C@@H]6CCCN6C(=O)[C@@H](NC(=O)OC)C(C)C)nc5c4)N3c3ccc(N4CCC(c5ccccc5)CC4)cc3)ccc2[nH]1)C(C)C [Example 4.25]
[15]; Hepatitis C virus, absence of human plasma
  EC50: 0.2 to 0.5 nM
[1]; [26]
  EC50: 0.5 nM
[3]; [27]
  EC50: 0.5 nM
[4]; [28]
  EC50: 1.5 nM
[5]; [29]
  EC50: 0.2 nM
[7]; [30]
  EC50: 0.5 nM
[8]; [31]
  EC50: 1.5 nM

## COC(=O)N[C@H](C(=O)N1CCC[C@H]1c1nc2cc([C@H]3CC[C@H](c4ccc5[nH]c([C@@H]6CCCN6C(=O)[C@@H](NC(=O)OC)C(C)C)nc5c4)N3c3cc(F)c(N4CCC(c5ccccc5)CC4)c(F)c3)ccc2[nH]1)C(C)C [Example 5.1, methyl{(2S)-1-[(2S)-2-{5-[(2R,5R)-1-[3,5-difluoro-4-(4-phenylpiperidin-1-yl)phenyl]-5-{2-[(2S)-1-{(2S)-2-[(methoxycarbonyl)amino]-3-methylbutanoyl}pyrrolidin-2-yl]-1H-benzimidazol-5-yl}pyrrolidin-2-yl]-1H-benzimidazol-2-yl}pyrrolidin-1-yl]-3-methyl-1-oxobutan-2-yl}carbamate]
[15]
  EC50 values, fold less than those of Example 4.25: at least 50 fold
[1]; [26]
  EC50: ≤ 0.05 nM
[3]; [27]
  EC50: ≤ 0.05 nM
[12]; transient transfection assays
  EC50 fold less than that of Example 37 of US 2010/0317568 against the 1b Y93H variant: at least 10 fold
[16]
  AUC value, fold greater than that of Example 2.9: about 30 fold
[4]; [28]
  EC50: 0.2 nM
[5]; [29]
  EC50: ≤ 0.05 nM
[7]; [30]
  EC50: ≤ 0.05 nM
[8]; [31]
  EC50: 0.1 nM
